# Source: patent publication US20250382332A1, “NOVEL ALPHA-FACTOR BASED PEPTIDES WITH ANTIFUNGAL ACTIVITY” (INVAIO SCIENCES, INC., priority 2024, published 2025)
# Peptide text beside a SMILES is read from it.
# Test system: Botrytis cinerea (B05.10)
# Assay: Resazurin antifungal assay of 180 alpha-factor peptide variants towards Botrytis (Example 2)
# Type: cell-based
# Set-up: key to active against Botrytis at 15 μM / active against Botrytis at 10 μM: Peptides that showed greater than 90% inhibition were considered active against Botrytis
# Conditions: for Inhibition at 20 μM: peptide 20 μM; for Inhibition at 50 μM: peptide 50 μM; for Inhibition at 100 μM: peptide 100 μM
# Procedure: The antifungal activity of 180 alpha-factor peptide variants towards Botrytis was tested. Experimental design:
# Peptides corresponding to SEQ ID NO: 1-180 were chemically synthesized using the solid-phase synthesis method and resuspended in water to a stock solution of 1 mM. The stock solution was aliquoted in cryovials and stored at −80° C.
# The Botrytis cinerea culture (B05.10) isolate was acquired from the Centraalbureau voor Schimmelcultures, the Netherlands. The Botrytis fungus was propagated on 0.5% V8 agar plates (200 ml V8 Juice, 3 g CaCO3, 15 g agar, 800-ml millipore water) at 20° C., in a 12 h photoperiod for 21 days.
# Fungal conidia were harvested by scraping a Botrytis plate flooded with 1 ml water with 0.1% Tween 80 solution. Conidia were then collected in a 50 ml falcon tube by passing the solution through a 40 micron filter. The solution was then centrifuged at 6000 rpm and the pellet was resuspended in 1 ml of 20% glycerol. The conidia concentration of the resulting solution was counted using a hemocytometer. The stock was diluted to […] using 20% glycerol and frozen in 100 μl aliquots in −80° C. until further use.
# Peptides were tested for activity against Botrytis, using the resazurin assay. For this, fungal stock conidia was first diluted to 5000 conidia/well. 50 μl of the spore suspension was added to each well of the sterile 96-well clear bottom testing plate and mixed with 50 μl of peptide solutions to a final concentration of 100, 50, 20, 15 and 10 μM. The plate was incubated for 24 h at 20° C. After 24 h, 10 μl of resazurin dye was added to the microtiter plate and incubated again for […]. Fluorescence was measured at 570/620 nm after 4 h of incubation with resazurin.
# Growth inhibition was calculated by subtracting the fluorescence values of conidia only wells from sample wells and depicted as % inhibition of fungal growth. Four technical replicates were used for all treatments.
# [1] = % inhibition of fungal growth, Botrytis conidia, peptide 10 μM, resazurin
# [2] = % inhibition of fungal growth, Botrytis conidia, resazurin
SMILES,Inhibition at 10 μM [1] [%],Inhibition at 20 μM [2] [%],Inhibition at 50 μM [2] [%],Inhibition at 100 μM [2] [%],"Inhibition at 15 μM (% inhibition of fungal growth, Botrytis conidia, peptide 15 μM, resazurin) [%]",active against Botrytis at 10 μM (peptide 10 μM),active against Botrytis at 15 μM (peptide 15 μM)
CSCC[C@H](NC(=O)[C@@H]1CCCN1C(=O)[C@H](CCC(N)=O)NC(=O)CNC(=O)[C@@H]1CCCN1C(=O)[C@H](CCCCN)NC(=O)[C@H](Cc1ccccc1)NC(=O)[C@H](CCCNC(=N)N)NC(=O)[C@H](CC(C)C)NC(=O)[C@H](CC(C)C)NC(=O)[C@H](Cc1c[nH]cn1)NC(=O)[C@@H](N)Cc1c[nH]c2ccccc12)C(=O)N[C@@H](Cc1ccc(O)cc1)C(=O)O [compound 4] (H-WHLLRFKPGQPMY-OH; N-terminus and C-terminus assumed),<90,<90,100,100,–,–,–
CSCC[C@H](NC(=O)[C@H](CO)NC(=O)[C@H](CCC(N)=O)NC(=O)CNC(=O)[C@@H]1CCCN1C(=O)[C@H](CCCCN)NC(=O)[C@H](Cc1ccccc1)NC(=O)[C@H](CC(N)=O)NC(=O)[C@H](CC(C)C)NC(=O)[C@H](CO)NC(=O)[C@H](CCCCN)NC(=O)[C@@H](N)Cc1c[nH]c2ccccc12)C(=O)N[C@@H](Cc1ccc(O)cc1)C(=O)O [compound 159] (H-WKSLNFKPGQSMY-OH; N-terminus and C-terminus assumed),–,–,<90,<90,–,–,–
CSCC[C@H](NC(=O)[C@@H]1CCCN1C(=O)[C@H](CCC(=O)O)NC(=O)CNC(=O)[C@@H]1CCCN1C(=O)[C@H](CCCCN)NC(=O)[C@H](Cc1ccccc1)NC(=O)[C@H](CCCCN)NC(=O)[C@H](CC(C)C)NC(=O)[C@H](Cc1ccccc1)NC(=O)[C@H](Cc1c[nH]cn1)NC(=O)[C@@H](N)Cc1c[nH]c2ccccc12)C(=O)N[C@@H](Cc1ccc(O)cc1)C(=O)O [compound 85] (H-WHFLKFKPGEPMY-OH; N-terminus and C-terminus assumed),<90,<90,100,100,–,–,–
CSCC[C@H](NC(=O)[C@@H]1CCCN1C(=O)[C@H](CCC(N)=O)NC(=O)CNC(=O)[C@@H]1CCCN1C(=O)[C@H](Cc1c[nH]c2ccccc12)NC(=O)[C@H](CC(C)C)NC(=O)[C@H](CCC(=O)O)NC(=O)[C@H](CC(C)C)NC(=O)[C@H](CC(=O)O)NC(=O)[C@H](Cc1c[nH]cn1)NC(=O)[C@@H](N)CCCCN)C(=O)N[C@@H](Cc1ccc(O)cc1)C(=O)O [compound 47] (H-KHDLELWPGQPMY-OH; N-terminus and C-terminus assumed),–,–,<90,<90,–,–,–
CSCC[C@H](NC(=O)[C@H](Cc1c[nH]cn1)NC(=O)[C@@H](N)Cc1c[nH]c2ccccc12)C(=O)N[C@H](C(=O)N[C@@H](CCC(N)=O)C(=O)N[C@@H](CC(C)C)C(=O)N[C@@H](CCCCN)C(=O)N1CCC[C@H]1C(=O)NCC(=O)N[C@@H](CCC(=O)O)C(=O)N1CCC[C@H]1C(=O)N[C@@H](CCSC)C(=O)N[C@@H](Cc1ccc(O)cc1)C(=O)O)C(C)C [compound 163] (H-WHMVQLKPGEPMY-OH; N-terminus and C-terminus assumed),–,–,<90,<90,–,–,–
CSCC[C@H](NC(=O)[C@@H]1CCCN1C(=O)[C@H](CCC(N)=O)NC(=O)CNC(=O)[C@@H](NC(=O)[C@H](CCCCN)NC(=O)[C@H](CC(C)C)NC(=O)[C@H](CO)NC(=O)CNC(=O)[C@H](Cc1c[nH]c2ccccc12)NC(=O)[C@H](Cc1c[nH]cn1)NC(=O)[C@@H](N)Cc1c[nH]c2ccccc12)C(C)C)C(=O)N[C@@H](Cc1ccc(O)cc1)C(=O)O [compound 82] (H-WHWGSLKVGQPMY-OH; N-terminus and C-terminus assumed),<90,<90,100,100,–,–,–
CSCC[C@H](NC(=O)[C@@H]1CCCN1C(=O)[C@H](CCC(N)=O)NC(=O)CNC(=O)[C@@H](NC(=O)[C@H](CCCNC(=N)N)NC(=O)[C@H](CC(C)C)NC(=O)[C@H](CC(N)=O)NC(=O)[C@@H](NC(=O)[C@H](Cc1c[nH]c2ccccc12)NC(=O)[C@H](CCCCN)NC(=O)[C@@H](N)Cc1c[nH]c2ccccc12)C(C)C)[C@@H](C)O)C(=O)N[C@@H](Cc1ccc(O)cc1)C(=O)O [compound 65] (H-WKWVNLRTGQPMY-OH; N-terminus and C-terminus assumed),<90,<90,100,100,–,–,–
CSCC[C@H](NC(=O)[C@H](Cc1c[nH]cn1)NC(=O)[C@@H](N)Cc1c[nH]c2ccccc12)C(=O)N[C@@H](CC(C)C)C(=O)N[C@H](C(=O)N[C@@H](Cc1ccccc1)C(=O)N[C@@H](CCCCN)C(=O)N1CCC[C@H]1C(=O)NCC(=O)N[C@@H](CCC(N)=O)C(=O)N1CCC[C@H]1C(=O)N[C@@H](CCSC)C(=O)N[C@@H](Cc1ccc(O)cc1)C(=O)O)[C@@H](C)O [compound 170] (H-WHMLTFKPGQPMY-OH; N-terminus and C-terminus assumed),–,–,<90,<90,–,–,–
CC[C@H](C)[C@H](NC(=O)[C@H](Cc1c[nH]c2ccccc12)NC(=O)[C@H](Cc1c[nH]cn1)NC(=O)[C@@H](N)Cc1c[nH]c2ccccc12)C(=O)N[C@@H](CCC(N)=O)C(=O)N[C@@H](CC(C)C)C(=O)N[C@@H](CCCCN)C(=O)N[C@@H](CCCCN)C(=O)NCC(=O)N[C@@H](CCC(=O)O)C(=O)N1CCC[C@H]1C(=O)N[C@@H](CCSC)C(=O)N[C@@H](Cc1ccc(O)cc1)C(=O)O [compound 71] (H-WHWIQLKKGEPMY-OH; N-terminus and C-terminus assumed),<90,<90,100,100,–,–,–
CC[C@H](C)[C@H](NC(=O)[C@H](CCC(N)=O)NC(=O)[C@@H](NC(=O)[C@H](Cc1c[nH]c2ccccc12)NC(=O)[C@H](CCCCN)NC(=O)[C@@H](N)Cc1c[nH]c2ccccc12)C(C)C)C(=O)N[C@@H](CCCCN)C(=O)N[C@@H](CCCCN)C(=O)NCC(=O)N[C@@H](C)C(=O)N1CCC[C@H]1C(=O)N[C@@H](CCSC)C(=O)N[C@@H](Cc1ccc(O)cc1)C(=O)O [compound 58] (H-WKWVQIKKGAPMY-OH; N-terminus and C-terminus assumed),<90,<90,100,100,–,–,–
CSCC[C@H](NC(=O)[C@@H]1CCCN1C(=O)[C@H](CCC(N)=O)NC(=O)CNC(=O)[C@H](C)NC(=O)[C@H](CCCNC(=N)N)NC(=O)[C@H](CC(C)C)NC(=O)[C@H](CCCNC(=N)N)NC(=O)CNC(=O)[C@H](Cc1c[nH]c2ccccc12)NC(=O)[C@H](Cc1c[nH]cn1)NC(=O)[C@@H](N)CCCCN)C(=O)N[C@@H](Cc1ccc(O)cc1)C(=O)O [compound 68] (H-KHWGRLRAGQPMY-OH; N-terminus and C-terminus assumed),97.09,100,100,100,99.23,active,active
CC[C@H](C)[C@H](NC(=O)[C@H](Cc1c[nH]c2ccccc12)NC(=O)[C@H](Cc1c[nH]cn1)NC(=O)[C@@H](N)CCCCN)C(=O)N[C@H](C(=O)N[C@@H](Cc1ccccc1)C(=O)N[C@@H](CCCCN)C(=O)N1CCC[C@H]1C(=O)NCC(=O)N[C@@H](CCC(N)=O)C(=O)N1CCC[C@H]1C(=O)N[C@@H](CCSC)C(=O)N[C@@H](Cc1ccc(O)cc1)C(=O)O)[C@@H](C)O [compound 11] (H-KHWITFKPGQPMY-OH; N-terminus and C-terminus assumed),<90,<90,100,100,–,–,–
CSCC[C@H](NC(=O)[C@@H]1CCCN1C(=O)[C@H](CO)NC(=O)CNC(=O)[C@@H]1CCCN1C(=O)[C@H](CCCCN)NC(=O)[C@H](CC(C)C)NC(=O)[C@@H](NC(=O)[C@H](CC(C)C)NC(=O)[C@@H](NC(=O)[C@H](CCC(=O)O)NC(=O)[C@@H](N)Cc1c[nH]c2ccccc12)C(C)C)[C@@H](C)O)C(=O)N[C@@H](Cc1ccc(O)cc1)C(=O)O [compound 130] (H-WEVLTLKPGSPMY-OH; N-terminus and C-terminus assumed),–,–,<90,<90,–,–,–
CSCC[C@H](NC(=O)[C@@H]1CCCN1C(=O)[C@H](CCSC)NC(=O)CNC(=O)[C@@H](NC(=O)[C@H](CCCCN)NC(=O)[C@H](CC(C)C)NC(=O)[C@H](CCC(=O)O)NC(=O)[C@H](CC(C)C)NC(=O)[C@H](Cc1c[nH]c2ccccc12)NC(=O)[C@H](CS)NC(=O)[C@@H](N)CCCCN)[C@@H](C)O)C(=O)N[C@@H](Cc1ccc(O)cc1)C(=O)O [compound 35] (H-KCWLELKTGMPMY-OH; N-terminus and C-terminus assumed),–,–,<90,97.61,–,–,–
